The METLIN SMRT retention time set (Domingo-Almenara et al. 2019)

Assay: gradient 5% acetonitrile 3 min, to 50% in 2 min, to 85% in 15 min, held 3 min, 100 µL/min
Details: column: Zorbax Extend-C18 2.1 x 50 mm; eluents: water / acetonitrile, 0.1% formic acid
How it was run: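 The mobile phases were water and acetonitrile, each with 0.1% formic acid, pumped at 100 μL/min through a Zorbax Extend-C18 column (2.1 × 50 mm, 1.8 μm). Pure standards were injected as mixtures of ~100 molecules and detected by a quadrupole time-of-flight mass spectrometer in positive and negative ionization mode. Retention time came from computationally picked adduct peaks, each inspected by hand.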

| Structure (SMILES) | RP-LC retention time [s] |
| --- | --- |
| O=C(Nc1cccc2cccnc12)c1ccc(N2C(=O)[C@@H]3[C@H](C2=O)[C@@H]2C=C[C@H]3C2)cc1 | 941 |
| CC(O)C1CCN(Cc2ccc(Br)o2)CC1 (stereo unspecified) | 566 |
| O=C(Cn1cnc2c(sc3nc(-c4ccccc4)ccc32)c1=O)NCCc1ccc(Cl)cc1 | 1060 |
| COc1ccc(-c2cc3c4nnc(SCC(=O)Nc5cccc(Br)c5)n4ccn3n2)cc1 | 1320 |
| COc1ccc(NC(=O)c2c[nH]c3ncccc23)cc1 | 673 |
| CN(C)S(=O)(=O)c1ccc(-c2nnc(C(=O)NCc3ccc(Br)cc3)o2)cc1 | 912 |
| O=C(NCC1CCOCC1)Nc1cccc(F)c1 | 698 |
| COC1CCC12CCN(C(=O)C1CCOCC1)CC2 (stereo unspecified) | 636 |
| CCc1ccccc1NC(=O)c1cccn1Cc1noc(C)n1 | 845 |
| COC(=O)c1ccc(CSc2nnc(CNC(=O)c3cccc([N+](=O)[O-])c3C)o2)o1 | 732 |
| COc1ccc(-c2nc(COc3cc(C)c4c(C)nn(C)c4n3)c(C)o2)cc1 | 1120 |
| CCCN(C)C(=O)c1cn2ccnc(-c3ccc(C)cc3)c2n1 | 956 |
| COc1ccccc1NC(=O)NC1CCCC(OC(=O)Nc2ccc(F)cc2)C1 (stereo unspecified) | 883 |
| COc1ccc(OCCN2CC(=O)N(c3ccc(C)c(C)c3)[C@@H]3CS(=O)(=O)C[C@@H]32)cc1 | 859 |
| Cc1cc2c(cc1S(=O)(=O)N1CCCC1C(=O)Nc1ccc(F)cc1)OCC(=O)N2 (stereo unspecified) | 743 |
| CCN(CC)S(=O)(=O)c1ccc2nc(NCc3cc(F)cc(F)c3)cnc2c1 | 1060 |
| COc1ccc(NC(=O)C2(C)Oc3cccnc3NC2=O)c(OC)c1 (stereo unspecified) | 707 |
| CSCc1csc(NC(=O)C2CCCC2)n1 | 782 |
| CNC(=O)N1CCC(C2CCN(C(=O)CN3CCCC3=O)C2)CC1 (stereo unspecified) | 585 |
| COc1ccc(-c2ccnc3nc(Cc4cc(F)cc(F)c4)nn23)c(F)c1 | 973 |
| Nc1cc([N+](=O)[O-])ccc1N1C(=O)CCCC1=O | 650 |
| Cc1cccn2cc(-c3ccc(NS(=O)(=O)c4ccccc4)cc3)nc12 | 617 |
| CCOc1ccc(-c2noc(-c3nn(-c4cccc(OC)c4)ccc3=O)n2)cc1 | 938 |
| CCOC(=O)[C@@H](C)NC(=O)C1CCN(S(=O)(=O)c2ccc(C)cc2)CC1 | 787 |
| COc1ccc(-c2csc(NC(=O)Cc3csc(-c4ccccc4)n3)n2)cc1 | 1090 |
| CCC(=O)Nc1ccc(CCc2nc3ccc(C(=O)NC(C)Cc4ccco4)cc3[nH]2)cc1 (stereo unspecified) | 630 |
| CCOC(=O)c1c(C)oc2nc(C)nc(Nc3ccc(OCC)cc3)c12 | 1360 |
| COCC1CN(C)CC12CCN(S(=O)(=O)c1cc(F)ccc1C)CC2 (stereo unspecified) | 661 |

The next lines start with the values.

| RP-LC retention time [s] | Structure (SMILES) |
| --- | --- |
| 596 | COc1ccc(NC(=O)Cn2ncc3c(N4CCN(c5ccccn5)CC4)ncnc32)cc1 |
| 758 | Cc1ccc(CC(=O)N2CCN(c3cc(-c4cccs4)[nH]n3)CC2)cc1 |
| 698 | CN1CCN(Cc2ccc(C(=O)NCCC3=CCCCC3)cc2)C(=O)C1=O |
| 611 | CCNC(=O)Nc1ccc2c(c1)CN(Cc1ccc(F)cc1F)CCO2 |
| 804 | COc1nccnc1NC1CCN(C(=O)c2ccc(C#N)cc2)CC1 |
| 970 | O=C(Nc1cnc(-c2ccccc2)nc1)c1cccc(F)c1 |
| 980 | O=C(NC1CCCCCCC1)C1CCCN(S(=O)(=O)c2c[nH]c(C(=O)N3CCCCCC3)c2)C1 (stereo unspecified) |
| 574 | O=C(NCCN1CCCC1)c1cccc(-c2ccc(N3CCCCCC3)nc2)c1 |
| 731 | Cc1ccc(-c2ccc(-n3nc(C)c(S(=O)(=O)N4CCN(C)CC4)c3C)nn2)cc1C |
| 670 | COC(=O)c1ccc2c(=O)n(-c3ccc(Cl)cc3)c(N3CCN(C)CC3)nc2c1 |
| 805 | CCNC(=O)c1cc(-c2ccccc2)n(C)c1C |
| 915 | CC(C)Oc1ccc(CNC(=O)c2nnc(-c3ccc(S(=O)(=O)N4CCOCC4)cc3)o2)cc1 |
| 1030 | CCCn1c(=O)c2cc(C(=O)NCc3ccc(C)cc3)nn2c2ccccc21 |
| 1150 | COc1ccc(-c2nnc(-c3cc(S(=O)(=O)N4CCCCCC4)ccc3Cl)o2)cc1 |
| 788 | COc1ccc(CC(=O)N2CCN(c3ccc(-c4nc(C)cs4)cn3)CC2)cc1OC |
| 884 | COc1cccc(NC(=O)N2CCc3nc(-c4ccccc4)ncc3C2)c1 |
| 1060 | CCN1C(=O)CCc2cc(NS(=O)(=O)c3ccc(C4CCCCC4)cc3)ccc21 |
| 1030 | Cn1c(C(=O)N2CCN(c3cccc(Cl)c3)CC2)cc2c(=O)oc3ccccc3c21 |
| 958 | Cc1ccc(-c2cc(C(=O)NC3CCCCC3)c(C)[nH]2)cc1 |

| RP-LC retention time [s] | Structure (SMILES) |
| --- | --- |
| 828 | Cc1ccc(CNC(=O)c2ccc3ccnc(N4CCN(c5ccc(F)cc5)CC4)c3c2)o1 |
| 772 | CCc1ccc(S(=O)(=O)N2CCC3(CC2)NCCN=C3NCc2cccc(F)c2)cc1 |
| 847 | COc1cc2c(cc1OC)CN(C(=O)c1cc(-c3ccc(F)cc3)c[nH]1)CC2 |
| 603 | OCCn1cc(-c2ccc3c(c2)CC/C3=N\O)c(-c2ccncc2)n1 |
| 719 | CC1=C(c2ccccc2)S(=O)(=O)N=C1N1CCCN(C(=O)c2ccco2)CC1 |
| 747 | O=C(NCc1ccc(F)cc1)C1CCCN(S(=O)(=O)c2c[nH]c(C(=O)N3CCCC3)c2)C1 (stereo unspecified) |
| 828 | Cc1ccc(-c2cc3c(N4CCCC(C(=O)NC(C)C)C4)nccn3n2)c(C)c1 (stereo unspecified) |
| 863 | O=C(c1cc2c(s1)CCCC2)N1CCCN(c2nnc3ccc(Cl)cn23)CC1 |
| 660 | CC1(C(=O)NCc2ccccc2)Cn2cnc(C(=O)NC3CC3)c2C(=O)N1C1CC1 (stereo unspecified) |
| 808 | Cc1ccc(C2Cn3cnc(C(=O)N4CCC(C(=O)NCc5cc(F)ccc5F)CC4)c3CO2)cc1 (stereo unspecified) |
| 1280 | CCOc1cccc(C(=O)Nc2nc(-c3ccc(OC)c(Br)c3)cs2)c1 |
| 700 | Cn1nc2c(c1NC(=O)C1CCCN1S(=O)(=O)c1ccc(F)cc1)CCC2 (stereo unspecified) |
| 887 | O=C(NCCC1=CCCCC1)c1c(OCC2CC2)cc(=O)n2c1CCCCC2 |
| 902 | Cn1cc(-c2cc3n(n2)CCC(=O)N3CC(=O)Nc2ccc(Cl)cc2)c2ccccc21 |
| 865 | CNC(=O)c1cc2c(C)nn(-c3cccc(F)c3)c2s1 |
| 638 | CC1CCN(C(=O)c2ccc3ncnc(N4CCCCC4)c3c2)CC1 |
| 581 | O=C(Nc1ccc(F)cc1F)N1CCN(CCn2c(-c3ccncc3)nc3cccnc32)CC1 |
| 578 | O=C(NCc1ccccc1)N1CCN(c2cnn3c(C4CC4)nnc3c2)CC1 |
| 784 | Cc1ccnc(N2CCC(C(=O)Nc3ccc(Br)cc3)CC2)n1 |
